In patent US5116855A, “Rhodanine derivatives and pharmaceutical compositions” (Nisshin Flour Milling Co., Ltd., priority 1989, dated 1992):

Biological target: T1, aldose reductase (Rattus norvegicus, UniProt P07943)
T1 construct: the lenses were excised and homogenized in cold distilled water; from tissue; host or cells: lens of male SD rats, homogenate supernatant (crude enzyme)
Test: Inhibitory activity against aldose reductase (crude enzyme from rat lenses, NADPH oxidation at 340 nm, D,L-glyceraldehyde substrate)
Format: biochemical
Details: aldose reductase from SD rat lenses, pH 6.2, 30° C.; for inhibition at 10 µM: pH 6.2, 10^-5 M; for inhibition at 10 µM / inhibition at 1 µM: read-out: Percentage of inhibition (%); for inhibition at 1 µM: pH 6.2, 10^-6 M
Description: The compounds of the present invention were evaluated for the inhibitory activity against aldose reductase according to the following assay procedure.
Enzyme activity was assayed according to the modification [Biochemical Pharmacology, 25, 2505 (1976)] of the method described in J. Biol. Chem., 240, 877-882 (1965).
SD strain male rats were sacrificed by decapitation, the lenses were excised and homogenized in cold distilled water. The homogenate was then centrifuged and the supernatant was used as the crude aldose reductase solution.
Separately, a 0.1 M sodium phosphate buffer (pH 6.2) containing 0.4 M ammonium sulfate was prepared at 30° C. In this buffer were dissolved the present compound, the crude aldose reductase solution and nicotinamide-adenine dinucleotide phosphate, reduced form (NADPH). The mixture was preincubated at 30° C. for 3 minutes and the reaction was initiated by addition of D,L-glyceraldehyde. In this case, the concentration of the present compound dissolved was 10^-5 M and 10^-6 M, respectively. The total amount of the assay mixture was 1.0 ml, containing 0.16 mM of NADPH, 10 mM of D,L-glyceraldehyde and 0.010-0.016 units of aldose reductase.
The inhibitory activity of the present compounds against aldose reductase was measured using each 1.0 ml of the reaction mixture containing the present compound in the above concentration. In this measurement, the rate of NADPH oxidation was followed by recording the decrease in absorbance at 340 nm. The inhibitory activity of the present compounds against aldose reductase as measured was expressed in percentage of inhibition (%) as a relative activity based on a control value.

| Structure (SMILES) | inhibition at 10 µM | inhibition at 1 µM | Percentage of inhibition (%) (10^-5 M) | Percentage of inhibition (%) (10^-6 M) |
| --- | --- | --- | --- | --- |
| COC(=O)COc1ccc(C(F)(F)F)cc1C=CC(C)=C1SC(=S)NC1=O [Example 66, Methyl 4-trifluoromethyl-2-[3-(4-oxo-2-thioxo-5-thiazolinylidene)-1-butenyl]phenoxyacetate] | 79.9% | 45.6% |  |  |
| CCOC(=O)CCC(C=Cc1ccc(OC)c(OC)c1)=C1SC(=S)NC1=O [Example 2, Ethyl 6-(3,4-dimethoxyphenyl)-4-(4-oxo-2-thioxo-5-thiazolidinylidene)-5-hexenoate] | 72% | 48.6% |  |  |
| CCOc1cc(C=CC(C)=C2SC(=S)NC2=O)ccc1OCC(=O)O [Example 70] | 87.4% | 62.2% |  |  |
| CCCCOC(=O)COc1ccc(Cl)cc1C=CC(C)=C1SC(=S)NC1=O (single isomer, unassigned) [51 Isomer A] | 51.4% |  |  |  |
| O=C(O)CCC(C=Cc1cccs1)=C1SC(=S)NC1=O [Example 30, 6-(2-Thienyl)-4-(4-oxo-2-thioxo-5-thiazolidinylidene)-5-hexenoic acid] | 73% |  |  |  |
| O=C(O)CCC(C=Cc1ccco1)=C1SC(=S)NC1=O [Example 35, 6-(2-Furyl)-4-(4-oxo-2-thioxo-5-thiazolidinylidene)-5-hexenoic acid] | 72.3% |  |  |  |
| CC(C(=O)Nc1ccccc1C(=O)O)=C1SC(=S)NC1=O [Example 36, N-[2-(4-Oxo-2-thioxo-5-thiazolidinylidene)propionyl]anthranilic acid] | 94% | 80% |  |  |
| COC(=O)COc1ccccc1C=CC(C)=C1SC(=S)NC1=O [Example 40, Methyl 2-[3-(4-oxo-2-thioxo-5-thiazolinylidene)-1-butenyl]phenoxyacetate] | 38.8% |  |  |  |
| COc1cccc(C=CC(C)=C2SC(=S)NC2=O)c1OCC(=O)O [Example 72, 2-Methoxy-6-[3-(4-oxo-2-thioxo-5-thiazolinylidene)-1-butenyl] phenoxyacetic acid] | 80.1% | 24.8% |  |  |
| COC(=O)COc1ccc(Br)cc1C=CC(C)=C1SC(=S)NC1=O [Example 56, Methyl 4-bromo-2-[3-(4-oxo-2-thioxo-5-thiazolinylidene)-1-butenyl]phenoxyacetate] | 63.9% | 27.1% |  |  |
| COC(=O)COc1ccc(Cl)cc1C=CC(C)=C1SC(=S)NC1=O [Example 49, Methyl 4-chloro-2-[3-(4-oxo-2-thioxo-5-thiazolinylidene)-1-butenyl]phenoxyacetate] | 80% | 30.5% |  |  |
| CC(C=Cc1ccccc1OCC(=O)O)=C1SC(=S)NC1=O [Example 67, 2-[3-(4-Oxo-2-thioxo-5-thiazolinylidene)-1-butenyl]phenoxyacetic acid] | 95.3% | 79.4% |  |  |
| CC(C=Cc1cc(Br)ccc1OCC(=O)O)=C1SC(=S)NC1=O [Example 79, 4-Bromo-2-[3-(4-oxo-2-thioxo-5-thiazolinylidene)-1-butenyl]phenoxyacetic acid] | 95.8% | 86.1% |  |  |
| CCOC(=O)COc1ccc(C=CC(C)=C2SC(=S)N(C)C2=O)cc1OC (single isomer, unassigned) [55 Isomer A] | 38.1% | 23.8% |  |  |
| CCCC(CCc1ccccc1OCC(=O)O)=C1SC(=S)NC1=O (single isomer, unassigned) [27 Isomer A] | 90.6% | 53.1% |  |  |
| COC(=O)COc1c(OC)cc(C=CC(C)=C2SC(=S)NC2=O)cc1OC [Example 48, Methyl 2,6-dimethoxy-4-[3-(4-oxo-2-thioxo-5-thiazolinylidene)-1-butenyl]phenoxyacetate] | 69.1% |  |  |  |
| CCOC(=O)CCC(C=Cc1ccc(C(=O)OC)cc1)=C1SC(=S)NC1=O [Example 12, Ethyl 6-(4-methoxycarbonylphenyl)-4-(4-oxo-2-thioxo-5-thiazolidinylidene)-5-hexenoate] | 42.8% |  |  |  |
| COC(=O)COc1ccc(C=CC(C)=C2SC(=S)NC2=O)cc1OCC(=O)OC (single isomer, unassigned) [60 Isomer A] | 61.5% | 27.7% |  |  |
| CCOC(=O)CCC(C=Cc1ccc(C#N)cc1)=C1SC(=S)NC1=O [Example 7, Ethyl 6-(4-cyanophenyl)-4-(4-oxo-2-thioxo-5-thiazolidinylidene)-5-hexenoate] | 50.9% |  |  |  |

| Structure (SMILES) | inhibition at 10 µM | inhibition at 1 µM | Percentage of inhibition (%) (10^-5 M) | Percentage of inhibition (%) (10^-6 M) |
| --- | --- | --- | --- | --- |
| CC(C=Cc1cc(C)c(OCC(=O)O)c(C)c1)=C1SC(=S)NC1=O [Example 87, 2,6-Dimethyl-4-[3-(4-oxo-2-thioxo-5-thiazolinylidene)-1-butenyl]phenoxyacetic acid] | 89.6% | 60.5% |  |  |
| COC(=O)COc1c(C=CC(C)=C2SC(=S)NC2=O)cccc1OC [Example 46, Methyl 2-methoxy-6-(3-(4-oxo-2-thioxo-5-thiazolinylidene)-1-butenyl]phenoxyacetate] | 34.3% |  |  |  |
| COC(=O)c1ccccc1NC(=O)C(C)=C1SC(=S)NC1=O [Example 18, Methyl N-[2-(4-oxo-2-thioxo-5-thiazolidinylidene)propionyl]anthranilate] | 84% | 62.6% |  |  |
| COc1ccc(C=CC(C)=C2SC(=S)NC2=O)cc1OCC(=O)O [Example 82, 2-Methoxy-5-[3-(4-oxo-2-thioxo-5-thiazolinylidene)-1-butenyl]phenoxyacetic acid] | 67.6% | 22.1% |  |  |
| CCOC(=O)COc1ccc(CCC(C)=C2SC(=S)NC2=O)cc1OC [Example 43, Ethyl 2-methoxy-4-[3-(4-oxo-2-thioxo-5-thiazolinylidene)butyl]phenoxyacetate] | 48.9% | 26.1% |  |  |
| CCCC(C=Cc1ccc(C(=O)O)cc1)=C1SC(=S)NC1=O (single isomer, unassigned) [3 Isomer B] |  |  | 80.5% | 34.5% |
| CCOc1cc(CCC(C)=C2SC(=S)NC2=O)ccc1OCC(=O)OC [Example 45, Methyl 2-ethoxy-4-[3-(4-oxo-2-thioxo-5-thiazolinylidene)butyl]phenoxyacetate] | 48.9% |  |  |  |
| CC(CCCC(=O)Nc1ccccc1C(=O)O)=C1SC(=S)NC1=O [Example 37, N-[5-(4-Oxo-2-thioxo-5-thiazolidinylidene)hexanoyl]anthranilic acid] | 56.4% |  |  |  |
| CCCC(=Cc1ccccc1OCC(=O)OC)C=C1SC(=S)NC1=O (single isomer, unassigned) [61 Isomer A] | 61.8% | 28.7% |  |  |
| COc1cccc(CCC(C)=C2SC(=S)NC2=O)c1OCC(=O)O [Example 73, 2-Methoxy-6-(3-(4-oxo-2-thioxo-5-thiazolinylidene)butyl]phenoxyacetic acid] | 59.2% |  |  |  |
| COC(=O)COc1ccccc1C=C(C)C=C1SC(=S)NC1=O [Example 41, Methyl 2-[2-methyl-3-(4-oxo-2-thioxo-5-thiazolinylidene)-1-propenyl]phenoxyacetate] | 86.2% | 48.5% |  |  |
| CCOC(=O)CCC(C=Cc1cccc(O)c1)=C1SC(=S)NC1=O (single isomer, unassigned) [8 Isomer B] |  |  | 43.1% |  |
| COC(=O)COc1ccc(C(C)C)cc1C=CC(C)=C1SC(=S)NC1=O (single isomer, unassigned) [62 Isomer B] |  |  | 66.7% |  |
| O=C(O)CCC(C=Cc1ccc(C(=O)O)cc1)=C1SC(=S)NC1=O [Example 29, 6-(4-Carboxyphenyl)-4-(4-oxo-2-thioxo-5-thiazolidinylidene)-5-hexenoic acid] | 82.8% | 38.5% |  |  |
| CC(C=Cc1cc(C(F)(F)F)ccc1OCC(=O)O)=C1SC(=S)NC1=O [Example 89, 4-Trifluoromethyl-2-[3-(4-oxo-2-thioxo-5-thiazolinylidene)-1-butenyl]phenoxyacetic acid] | 92.9% | 85.7% |  |  |
| COC(=O)COc1ccc(C=CC(C)=C2SC(=S)NC2=O)cc1OC [Example 42, Methyl 2-methoxy-4-[3-(4-oxo-2-thioxo-5-thiazolinylidene)-1-butenyl]phenoxyacetate] | 54.2% | 33.8% |  |  |
| CCCCCCC(C=Cc1ccc(C(=O)O)cc1)=C1SC(=S)NC1=O (single isomer, unassigned) [26 Isomer A] |  | 68.9% | 92.0% |  |
| COc1cc(C=CC(C)=C2SC(=S)NC2=O)cc(OC)c1OCC(=O)O [Example 74, 2,6-Dimethoxy-4-[3-(4-oxo-2-thioxo-5-thiazolinylidene)-1-butenyl]phenoxyacetic acid] | 74.3% |  |  |  |
| CCC(CCc1cccn1CCC(=O)O)=C1SC(=S)NC1=O [Example 34, 3-{2-[3-(4-Oxo-2-thioxo-5-thiazolidinylidene)pentyl]pyrrol-1-yl}propionic acid] | 80.8% | 35.5% |  |  |
